Reference: patent publication US20250186403A1 (ARIZONA BOARD OF REGENTS ON BEHALF OF THE UNIVERSITY OF …, priority 2022, published 2025)
“And” between values parts separate entries of the source, which are not always exact repeats. Identical values can stand only once.

How the values were obtained:
[1] = system: A. fumigatus; assay: MIC by microdilution method (resazurin); assay type: cell-based; conditions: Aspergillus fumigatus
Procedure: Serial double dilution of the CMN was done in the RPMI-MOPS medium. Freshly grown fungal culture from the SD agar plate was resuspended in sterile water and diluted to get 0.1 OD at 600 nm. […] The plates were incubated at 30° C. for 48 h. Plates were checked for growth by visual observation. For Afu, resazurin was added to 44 µM and incubated for 12 h at 37° C. before noting a change in color from blue to pink by live cells. MIC is defined as the minimum concentration at which there is no growth when observed visually.

[2] = Cytotoxicity (Cell Counting Kit-8); assay type: cell-based; conditions: human, A549 cells
Procedure: FIGS. 4A, 4B, and 4C show in vitro and in vivo toxicity. […] A549 and RAW 264.7 cells were grown in 96 well plates till 70% confluent. RAW 264.7 cells were differentiated into macrophages using PMA. […] The cell viability was estimated by Cell Counting Kit-8 (GlpBio, CA, USA), and absorbance was read at 450 nm using microplate reader Synergy H1 (BioTek). CC50 was calculated by GraphPad prism. […] Abs: absorbance. […] Bodyweight and other parameters were monitored daily (Table 3).
Approximately 2×10^4 A549 cells in MEM media with 10% FBS were seeded per well of 96 well plates and incubated at 37° C. to reach 70% confluent. […] The plates were incubated for 48 h before the addition of 10 μl water-soluble […] (Cell counting kit-8, Glpbio Technology) to each well and incubated at 37° C. for 3 h.

Compound: CNc1ccc2oc(C[C@H]3O[C@@]4(CC[C@H]3C)O[C@H]([C@H](C)C(=O)c3ccc[nH]3)[C@H](C)C[C@H]4C)nc2c1C(=O)O [CMN, calcimycin]
- MIC [1]: > 50 µM
- CC50 at 48 h [2]: 16.3 µM and 8.6 µg/mL
